The supplement of paper PMC11451515

System: NOMO1
Assay: cell viability relative to DMSO control; higher = less cytotoxic
Details: 48 h
In short: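 NOMO1, SEM and P12-Ichikawa leukemia cells spent at least four passages adapting to each medium before use. They were seeded at 500 cells/well (NOMO1, SEM) or 1000 cells/well (P12-Ichikawa) in 5 μl in 1536-well plates and pin-dosed with library compounds in DMSO at 11 threefold steps from 47 μM down to 0.79 nM. After 48 h at 37°C, CellTiter-Glo One luminescence was read. Viability is reported as a percentage of the DMSO wells on each plate, with cell-free wells as background.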

[1] = HPLM + 10% dialyzed FBS, 0.000781 µM
[2] = HPLM + 10% dialyzed FBS, 0.00234 µM
[3] = HPLM + 10% dialyzed FBS, 0.00702 µM
[4] = HPLM + 10% dialyzed FBS, 0.0211 µM
[5] = HPLM + 10% dialyzed FBS, 0.0632 µM
[6] = HPLM + 10% dialyzed FBS, 0.19 µM
[7] = HPLM + 10% dialyzed FBS, 0.569 µM
[8] = HPLM + 10% dialyzed FBS, 1.71 µM
[9] = HPLM + 10% dialyzed FBS, 5.12 µM
[10] = HPLM + 10% dialyzed FBS, 15.4 µM
[11] = HPLM + 10% dialyzed FBS, 46.1 µM
[12] = RPMI 5 mM glucose + 10% FBS, 0.000781 µM
[13] = RPMI 5 mM glucose + 10% FBS, 0.00234 µM
[14] = RPMI 5 mM glucose + 10% FBS, 0.00702 µM
[15] = RPMI 5 mM glucose + 10% FBS, 0.0211 µM
[16] = RPMI 5 mM glucose + 10% FBS, 0.0632 µM
[17] = RPMI 5 mM glucose + 10% FBS, 0.19 µM
[18] = RPMI 5 mM glucose + 10% FBS, 0.569 µM
[19] = RPMI 5 mM glucose + 10% FBS, 1.71 µM
[20] = RPMI 5 mM glucose + 10% FBS, 5.12 µM
[21] = RPMI 5 mM glucose + 10% FBS, 15.4 µM
[22] = RPMI 5 mM glucose + 10% FBS, 46.1 µM
[23] = RPMI 5 mM glucose + 10% dialyzed FBS, 0.000781 µM
[24] = RPMI 5 mM glucose + 10% dialyzed FBS, 0.00234 µM
[25] = RPMI 5 mM glucose + 10% dialyzed FBS, 0.00702 µM
[26] = RPMI 5 mM glucose + 10% dialyzed FBS, 0.0211 µM
[27] = RPMI 5 mM glucose + 10% dialyzed FBS, 0.0632 µM
[28] = RPMI 5 mM glucose + 10% dialyzed FBS, 0.19 µM
[29] = RPMI 5 mM glucose + 10% dialyzed FBS, 0.569 µM
[30] = RPMI 5 mM glucose + 10% dialyzed FBS, 1.71 µM
[31] = RPMI 5 mM glucose + 10% dialyzed FBS, 5.12 µM
[32] = RPMI 5 mM glucose + 10% dialyzed FBS, 15.4 µM
[33] = RPMI 5 mM glucose + 10% dialyzed FBS, 46.1 µM

| SMILES | cell viability [1] | cell viability [2] | cell viability [3] | cell viability [4] | cell viability [5] | cell viability [6] | cell viability [7] | cell viability [8] | cell viability [9] | cell viability [10] | cell viability [11] | cell viability [12] | cell viability [13] | cell viability [14] | cell viability [15] | cell viability [16] | cell viability [17] | cell viability [18] | cell viability [19] | cell viability [20] | cell viability [21] | cell viability [22] | cell viability [23] | cell viability [24] | cell viability [25] | cell viability [26] | cell viability [27] | cell viability [28] | cell viability [29] | cell viability [30] | cell viability [31] | cell viability [32] | cell viability [33] |
| --- | --- | --- | --- | --- | --- | --- | --- | --- | --- | --- | --- | --- | --- | --- | --- | --- | --- | --- | --- | --- | --- | --- | --- | --- | --- | --- | --- | --- | --- | --- | --- | --- | --- |
| Cc1ccc([S+](=O)([O-])NC(=O)NN2CC3CCCC3C2)cc1 (centres undefined) | 108% | 127% | 114% | 104% | 134% | 113% | 96.6% | 104% | 111% | 53.4% | 30.3% | 98% | 104% | 105% | 104% | 106% | 99.5% | 113% | 102% | 108% | 55.6% | 24.1% | 96.4% | 118% | 101% | 105% | 106% | 110% | 103% | 106% | 110% | 57.3% | 36% |
| NC(=O)c1c(OCc2c(F)cc(Br)cc2F)nsc1NC(=O)NCCCCN1CCCC1 | 89.9% | 108% | 91.4% | 82.3% | 76.8% | 87.6% | 107% | 79.8% | 67.6% | 18.5% | 21.5% | 123% | 116% | 115% | 116% | 112% | 105% | 111% | 103% | 103% | 66.6% | 85.7% | – | – | – | – | – | – | – | – | – | – | – |
| Cc1nc(N)sc1-c1ccnc(Nc2ccc(N3CCOCC3)cc2)n1 | 95.3% | 117% | 111% | 120% | 110% | 114% | 115% | 112% | 87% | 79.6% | 82.8% | 93.7% | 91% | 96.5% | 95.5% | 105% | 114% | 105% | 105% | 71.2% | 85.2% | 55.5% | 95.6% | 112% | 116% | 109% | 115% | 106% | 110% | 111% | 69.3% | 72.6% | 61.7% |
| CC1(C)NC(=O)N(c2ccc([N+](=O)[O-])c(C(F)(F)F)c2)C1=O | 93.3% | 91.4% | 90% | 107% | 96.2% | 96.9% | 82% | 92.8% | 90% | 90.1% | 82.3% | 92.9% | 95.5% | 90.9% | 94.6% | 92.8% | 88.7% | 90.1% | 97.8% | 86.3% | 82.2% | 76.4% | 80.9% | 87.7% | 90.8% | 86.6% | 86.2% | 82.2% | 89.3% | 85.9% | 86.5% | 77.5% | 82.1% |
| COC1=CC(=C2C(=O)N(COC/3=C/C(=O)N4\C=C/C=C(OCCN5CCCCC5)\C4=N3)[S+]([O-])(=O)C2=C1)C(C)C | – | – | – | – | – | – | – | – | – | – | – | 121% | 123% | 127% | 134% | 132% | 127% | 129% | 140% | 141% | 140% | 127% | – | – | – | – | – | – | – | – | – | – | – |
| CCN(CC)CCNC(=O)c1ccc2nc(-c3ccccc3)c(-c3ccc(CN4CCC(n5c(=O)[nH]c6ccccc65)CC4)cc3)nc2c1 | 95.1% | 124% | 152% | 134% | 112% | 130% | 107% | 93.6% | 10.6% | 8.39% | 4.57% | – | – | – | – | – | – | – | – | – | – | – | – | – | – | – | – | – | – | – | – | – | – |
| O=C1CCc2cc(OCCCCc3nnnn3C3CCCCC3)ccc2N1 | 92.2% | 86.5% | 92.8% | 99.6% | 97.6% | 98.9% | 107% | 86% | 108% | 124% | 111% | 93% | 94.7% | 91.3% | 82.8% | 85.8% | 98.4% | 88.2% | 88.7% | 92.4% | 91.2% | 91.4% | 88.6% | 93% | 88.8% | 95.7% | 88% | 93.1% | 96.9% | 96.5% | 109% | 93.9% | 96% |
| COC1=CC2=C(C=C1CC3=C(F)C(=CC=C3)Cl)C(=O)\C(=C/N2[C@H](CO)C(C)C)C(O)=O | 122% | 142% | 123% | 128% | 114% | 131% | 124% | 118% | 127% | 89.6% | 27.7% | 115% | 117% | 109% | 104% | 115% | 129% | 108% | 102% | 110% | 102% | 14.7% | 110% | 118% | 138% | 130% | 131% | 129% | 123% | 118% | 123% | 115% | 24.7% |
